Laboratory results from patent publication US20030091533A1, “Regulation of mononuclear phagocyte stimulation” (priority 2001, published 2003).

B1: IFN-γ: Interferon gamma, primes mononuclear phagocytes, 200 U/ml (protein, UniProt P01579 24-161, looked up)
Interferon gamma: QDPYVKEAENLKKYFNAGHSDVADNGTLFLGILKNWKEESDRKIMQSQIVSFYFKLFKNFKDDQSIQKSVETIKEDMNVKFFNSNKKKRDDFEKLTNYSVTDLNVQRKAIHELIQVMAELSPAAKTGKRKRSQMLFRG

Columns and labels:
Type in all cases: cell-based, human
LPS-stimulated PBM [1] = experiment: Intracellular oxidative burst, DCFH oxidation assay, PBM; settings: for oxidative burst in LPS-stimulated PBM with IFN-γ: preincubated 24 hour with cytokine 20 ng/ml in the presence of IFN-γ 200 U/ml, LPS 1 μg/ml 20 hour; for LPS-stimulated oxidative burst in PBM: preincubation 24 hour with cytokine 20 ng/ml, then LPS 1 μg/ml 20 hour, without IFN-γ; for Oxidative burst (nmoles DCF/mg protein): LPS 1 μg/ml 20 h
Description: Intracellular oxidative capacity was assessed essentially as described by Bass et al., J. Immunol., 130:1910-1917 (1983) (incorporated herein by reference) as described infra.
Cells (0.2×10^6) were preincubated for 24 hour with IL-9 or IL-4 (20 ng/ml) in the presence of IFN-γ (200 U/ml) before stimulation for 20 hour with LPS (1 μg/ml). The intracellular oxidative capacity was measured through the DCFH oxidation assay as describe herein. FIG. 3 depicts the effect of IFN-γ on the inhibition mediated by IL-9 and IL-4 on the oxidative burst in LPS-stimulated PBM (A) and AM (B).
Table 1. Specific blockade of the IL-9 inhibitory effect on oxidative burst in LPS-15 stimulated PBM and AM by anti-hIL-9R mAb. Cells (0.2×10^6) were preincubated with neutralizing mAb against hIL-9R (AH9R7, 10 μg/ml), or with control mIgG2b (10 μg/ml), 1 hour before incubation with IL-9 (20 ng/ml) for 24 hour without removing mAb, and stimulated by LPS (1 μg/ml) for 20 h. Intracellular oxidative capacity was evaluated by the DCFH oxidation assay. Data are means±SEM obtained from three experiments, triplicate conditions being performed in each experiment. *P<0.001 compared with cells preincubated with IL-9 (with or without control mIgG2b).
Cells (0.2×10^6) were preincubated with neutralizing mAb, either against TGF-β1 (30 μg/ml) or against IL-10Rβ (30 μg/ml) or with control mIgG1 (30 μg/ml), 2 hour before incubation with IL-9 (20 ng/ml) for 24 hour without removing the mAb, and stimulated with LPS (1 μg/ml) for 20 h. Intracellular oxidative capacity was evaluated by the DCFH oxidation assay.
Intracellular oxidative capacity was assessed as described by Bass et al., (Bass et al., J. Immunol. 130:1910-1917 (1983)). Briefly, the PBM and AM samples were distributed in 96-well plates with flat bottoms (Falcon) to provide 0.2×10^6cells/well. The cells were preincubated for 24 hour at 37° C., 5% CO2 with cytokines (200 u/ml for IFN-y, 20 ng/ml for IL-9 and 20 ng/ml; for IL-4) in cRPMI before being stimulated for 20 hours with LPS (1 μg/ml) without removing the cytokines. At the end of incubation with cytokines and/or LPS, cells were loaded for 15 min with 15 μM DCFH-DA in cRPMI which, after passive penetration into cells, is hydrolyzed into nonfluorescent polar DCFH and trapped inside the cells. DCFH is then oxidized into highly fluorescent DCF according to the intracellular amount of hydrogen peroxide (H2O2) produced by the respiratory burst. After three washings with phosphate-buffered saline (PBS, pH 7.4), cells were lysed in 0.1% v/v Triton X100 (Sigma) in PBS, and fluorescence was quantified in a computerized microplate spectrofluorimeter (Packard Instruments, Downers Grove, Ill., USA) at 485 nm excitation/530 nm emission wavelengths. DCF concentrations were deduced from a standard curve of known concentrations of fluorescent DCF (ranging from 0.08 to 10 μM in lysis buffer) Results were corrected for total protein concentration determined in cell lysates by the bicinchoninic acid-based method (Pierce, Rockford, Ill., USA), and were expressed as nmoles DCF/mg cell protein.

LPS-stimulated PBM [2] = experiment: IL-8 release by ELISA, PBM; settings: for effect on IL-8 release by LPS-stimulated PBM: preincubated 24 hour, LPS 20 hour
Description: (§1) PBM and AM obtained as described infra (1×10^6 PBM, 0.5×10^6 AM) were preincubated for 24 hour with cytokines, IL-4, IL-9 (20 ng/ml) and IFN-γ (200 U/ml) before the stimulation by LPS (1 μg/ml) for 20 h. Supernatants were harvested and frozen at −20° C. until cytokine titration. TNF-α release was determined in supernatants by a cytotoxic bioassay using WEHI 164 clone 13 target cells (Espevik and Nissen-Meyer, J. Immunol. Methods, 95:99-105 (1986) (incorporated herein by reference)), while IL-8 was quantitated in the same supernatants by ELISA. FIG. 5 depicts the effects of IL-9, IL-4, and IFN-γ on the release of TNFα (A) and IL-8 (B) by LPS-stimulated PBM and AM. Data are means±SEM (n=3). *P<0.001 compared with unstimulated cells; **P<0.05 compared with cells preincubated with medium.
(§2) Cells (1×10^6 PBM or 0.5×10^6 AM/well) were distributed in 24-well plates (Falcon), preincubated in cRPMI for 24 hours at 37° C., 5% CO2 with cytokines (IL-9, IL-4 (20 ng/ml) and IFN-γ (200 U/ml)) and stimulated for 20 hours with 1 μg/ml LPS without removing cytokines. Supernatants were harvested and frozen at −20° C. until cytokine titration. Release of TNF-α was quantified by a cytotoxicity bioassay using WEHI 164 cells clone 13, as previously described (Espevik and Nissen-Meyer, J. Immunol. Methods, 95:99-105 (1986) incorporated herein by reference), using rhTNF-α from Boehringer as a standard. IL-8, IL-10 and TGF-β1 concentrations were determined by ELISA. A kit from CLB (Amsterdam, The Netherlands) was used for IL-10 quantitation, following the manufacturer's protocol. A kit from Biosource allowed to determine TGF-β1 after the release from its latent complexes by a treatment of supernatants with ethanol acid (‘acid-treated supernatants’); TGF-P 1 was also assessed in crude supernatants (‘untreated supernatants’). […] The reaction was then developed in 0.03% v/v H2O2 substrate and 0.42 mM 3,3′,5,5′-tetramethylbenzidine as chromogen in 100 mM sodium acetate/citric acid buffer (pH 4.9), stopped with 2 M H2SO4, and read in a plate spectrometer at 450 nm. […]

LPS-stimulated PBM [3] = experiment: TNF-α release, cytotoxic bioassay with WEHI 164 clone 13 cells, PBM; settings: preincubated 24 hour with cytokine (IL-9, IL-4 20 ng/ml, IFN-γ 200 U/ml) or medium, LPS 1 μg/ml 20 h; without LPS 10.2±4.1
Description: as §1, §2

| Molecule | oxidative burst in LPS-stimulated PBM with IFN-γ (LPS-stimulated PBM [1]) | LPS-stimulated oxidative burst in PBM (LPS-stimulated PBM [1]) | IL-8 release by LPS-stimulated PBM (LPS-stimulated PBM [2]; preincubated 24 hour with cytokine or medium, LPS 1 μg/ml 20 hour, without LPS 10.0±2.4) | TNF-α release by LPS-stimulated PBM (LPS-stimulated PBM [3]) | Oxidative burst (nmoles DCF/mg protein) (LPS-stimulated PBM [1]; Table 1, PBM, mAb 10 μg/ml 1 hour before IL-9 20 ng/ml 24 hour, means±SEM, medium 10.1 ± 0.4) | Oxidative burst (nmoles DCF/mg protein) (LPS-stimulated PBM [1]; Table 3, PBM, mAb 30 μg/ml 2 hour before IL-9 20 ng/ml 24 hour, means±SD, Medium 10.3 ± 0.2) | effect on IL-8 release by LPS-stimulated PBM (LPS-stimulated PBM [2]) | effect on LPS-stimulated oxidative burst in PBM (LPS-stimulated PBM [1]; preincubation 24 hour, LPS 20 hour) |
| --- | --- | --- | --- | --- | --- | --- | --- | --- |
| IL-4: Th2 cytokine interleukin-4 used as comparator, 20 ng/ml | 19.6±2.2 nmoles DCF/mg protein | 9.4±0.6 nmoles DCF/mg protein | 20.1 ± 2.1 ng/mL | 72.5 ± 21.5 pg/mL |  |  |  |  |
| IL-9: Human IL-9 purified from SF9 insect cell cultures infected with recombinant baculovirus | 10.5±2.1 nmoles DCF/mg protein | 10.7±0.5 nmoles DCF/mg protein |  | 84.2 ± 17.2 pg/mL | 10.7 ± 0.5 nmoles DCF/mg protein | 10.8 ± 0.6 nmoles DCF/mg protein | no significant modulation |  |
| B1 |  |  |  | 289.8 ± 12.9 pg/mL |  |  | no significant modulation | slightly increased |
